Data on one compound can be found in US6641840B2, “Sustained release formulations for growth hormone secretagogues” (Pfizer Inc., priority 2000, dated 2003).

A value given as a limit tells only on which side of the number the result lay.

The test system of assay [1] is insulin-like growth factor binding protein 3 (IGFBP-3). Kind of assay: Clinical study: IGFBP-3. Particulars: first leg, immediate release dosing. In kind it is in vivo, human. The source says: (All dosage forms in this part of the study were immediate release dosage forms.)
The primary efficacy endpoint was the percentage change from baseline in IGF-1. Secondary outcomes included insulin-like growth factor binding protein 3 (IGFBP-3), cholesterol subfractions, and percent changes in total adipose and total lean tissue. Changes in each of the secondary efficacy measures over time were examined systematically either graphically or in tabular form and summarized using appropriate descriptive statistics as is well known in the art.

A further assay deals with growth hormone. Kind of assay: Clinical extension study: growth hormone secretion profile (GH peaks). Format: in vivo, human. The method, then:
In addition, an extension study was conducted to evaluate the relationship between peak GH concentrations or IGF-I versus surrogate responses such as lipid concentrations and body composition. A sustained release (SR) formulation was also evaluated, either alone or combined with an immediate release (IR) formulation (24-30 patients per group). [16 mg (10 SR, 6 IR) h.s. (h.s. means at bedtime); 16 mg (10 SR, 6 IR) h.s. every third day; 16 mg SR h.s.; and placebo.] The formulations are set forth below.
In addition to this schedule, subjects at selected sites in the extension study were studied during two overnight admissions on the first night of dosing and again on day 28 of dosing. Growth hormone secretion and pharmacokinetic sampling was carried out.
A follow-up evaluation was made at 1, 2, and 4 weeks. Vital signs were obtained and the skin of the face, trunk and upper extremities was inspected.
In addition, subjects at selected study centers were admitted to an overnight unit on day 28 of dosing. Growth hormone secretion profile, pharmacokinetics, and vital sign determination were carried out.

`CN1N=C2CCN(C(=O)[C@@H](COCc3ccccc3)NC(=O)C(C)(C)N)C[C@@]2(Cc2ccccc2)C1=O.O=C(O)C(O)C(O)C(=O)O` [Compound A]: the IGFBP3 entry in assay [1] is recorded as “increased”. Also, the “GH peak heights, Q 3 day group greater than QD group” value in the assay on growth hormone (16 mg (10 SR, 6 IR) every third day vs daily) amounted to 1.52 ng/mL. Moreover, the “GH peaks, average” value in the assay with growth hormone (group receiving SR alone (16 mg SR h.s.), after 4 weeks) is 2 ng/mL; in the assay with growth hormone (group receiving SR alone (16 mg SR h.s.), at baseline), “less than 4 ng/ml”; with growth hormone (groups receiving 6 mg IR (with 10 mg SR), at baseline) it was not below 15 ng/mL; in the assay on growth hormone (groups receiving 6 mg IR (with 10 mg SR), by 4 weeks) it was 4 to 6 ng/mL.
